Values of other authors, collected in paper PMC9762682, “Tocotrienols: Exciting Biological and Pharmacological Properties of Tocotrienols and Naturally Occurring Compounds, Part II” (Annals of clinical case reports, 2022).
Read-outs that look alike come from different tables or passages of the source.

How the values were obtained:
TNF-α [1] = conditions: LPS-induced macrophages of wild type (C57BL/6) control group
TNF-α [2] = conditions: LPS-induced macrophages of PPAR-α knockout female mice
Hela cells = tested on: Hela cells; design: method as in PMID 29606130; value at effective dose: unit not given here; conditions: for effective dose / percentage of control at effective dose / value at effective dose: 48 h;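 on IC50: anti-proliferation of cancer cells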
Liver cancer cells = tested on: Liver cancer cells; design: method as in PMID 29606130; value at effective dose: unit not given here; conditions: for effective dose / percentage of control at effective dose / value at effective dose: 48 h
Pancreas cancer cells = tested on: Pancreas cancer cells; design: method as in PMID 29606130; value at effective dose: unit not given here; conditions: for effective dose / percentage of control at effective dose / value at effective dose: 48 h
Prostate cancer cells = tested on: Prostate cancer cells; design: method as in PMID 29606130; value at effective dose: scale not given here; conditions: for effective dose / percentage of control at effective dose / value at effective dose: 48 h;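 on IC50: anti-proliferation of cancer cells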
Breast cancer cells = tested on: Breast cancer cells; design: method as in PMID 29606130; value at effective dose: unit not given here;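 on IC50: anti-proliferation of cancer cells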
Lung cancer cells = tested on: Lung cancer cells; design: method as in PMID 29606130; value at effective dose: unit not given here
Melanoma cells = tested on: Melanoma cells; design: method as in PMID 29606130
B-Lymphocyte cells = tested on: B-Lymphocyte cells; design: method as in PMID 29606130; value at effective dose: unit not given here;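 on IC50: anti-proliferation of cancer cells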
T-cells (Jurkat) = tested on: T-cells (Jurkat); design: method as in PMID 29606130; value at effective dose: unit not given here
people with T2DM = conditions: for Fasting Glucose, Post-dose, percentage of control (pre-dose) in parentheses / MDA, Post-dose / MDA, Post-dose, percentage of control (pre-dose) in parentheses / hs-CRP, Post-dose / hs-CRP, Post-dose, percentage of control (pre-dose) in parentheses / Fasting Glucose, Post-dose: serum; for Fasting Glucose, Post-dose, percentage of control (pre-dose) in parentheses / MDA, Post-dose / MDA, Post-dose, percentage of control (pre-dose) in parentheses / hs-CRP, Post-dose / hs-CRP, Post-dose, percentage of control (pre-dose) in parentheses / Fasting HbA1c, Post-dose / Fasting HbA1c, Post-dose, percentage of control (pre-dose) in parentheses / HOMA-IR, Post-dose / HOMA-IR, Post-dose, percentage of control (pre-dose) in parentheses: two capsules/d for 24-weeks; for Fasting Glucose, Post-dose: two capsules/d for 24-weeks (δ-tocotrienol 250 mg, vitamin D3 5000 IU, resveratrol 250 mg per capsule)

SMILES | effective dose (Hela cells) | percentage of control at effective dose (Hela cells) | effective dose (Liver cancer cells) | percentage of control at effective dose (Liver cancer cells) | value at effective dose (Liver cancer cells) | effective dose (Pancreas cancer cells) | percentage of control at effective dose (Pancreas cancer cells) | value at effective dose (Pancreas cancer cells) | effective dose (Prostate cancer cells) | percentage of control at effective dose (Prostate cancer cells) | value at effective dose (Prostate cancer cells) | effective dose (Breast cancer cells) | percentage of control at effective dose (Breast cancer cells) | value at effective dose (Breast cancer cells) | effective dose (Lung cancer cells) | percentage of control at effective dose (Lung cancer cells) | effective dose (Melanoma cells) | percentage of control at effective dose (Melanoma cells) | effective dose (B-Lymphocyte cells) | percentage of control at effective dose (B-Lymphocyte cells) | also measured
Cc1cc2nc3c(=O)[nH]c(=O)nc-3n(C[C@H](O)[C@H](O)[C@H](O)CO)c2cc1C [(−) Riboflavin, Riboflavin] | 40 µM | 64% | 80 µM | 91% | 74.0 ± 2.0 | 40 µM | 67% | 40.0 ± 2.0 | 40 µM | 61% | 20.0 ± 2.0 | 80 µM | 61% | 12.7 ± 1.5 | 10 µM | 23% | 40 µM | 91% | 20 µM | 69% | effect on secretion of TNF-α (TNF-α [1]): inhibition; effect on secretion of TNF-α (TNF-α [2]): activation; value at effective dose (Hela cells): 21.0 ± 1.0; IC50 (Prostate cancer cells): 80 µM; percentage of control at IC50 dose (Prostate cancer cells): 55%; percentage of control at IC50 dose (Lung cancer cells): 28%; value at effective dose (Lung cancer cells): 7.7 ± 2.1; IC50 (B-Lymphocyte cells): 80 µM; percentage of control at IC50 dose (B-Lymphocyte cells): 55%; value at effective dose (B-Lymphocyte cells): 19.3 ± 3.1; effective dose (T-cells (Jurkat)): 20 µM; percentage of control at effective dose (T-cells (Jurkat)): 32%; value at effective dose (T-cells (Jurkat)): 142.0 ± 4.4
C=C1CC[C@H](O)C/C1=C/C=C1\CCC[C@]2(C)[C@@H]([C@H](C)CCCC(C)C)CC[C@@H]12 [Vitamin D3] | – | – | – | – | – | – | – | – | – | – | – | – | – | – | – | – | – | – | – | – | Fasting Glucose, Post-dose, percentage of control (pre-dose) in parentheses (people with T2DM): 95%; MDA, Post-dose (people with T2DM): 3.48 µmol/L; MDA, Post-dose, percentage of control (pre-dose) in parentheses (people with T2DM): 97%; hs-CRP, Post-dose (people with T2DM): 3.09 mg/L; hs-CRP, Post-dose, percentage of control (pre-dose) in parentheses (people with T2DM): 92%; Fasting Glucose, Post-dose (people with T2DM): 7.16 mmol/L; Fasting HbA1c, Post-dose (people with T2DM): 8.19%; Fasting HbA1c, Post-dose, percentage of control (pre-dose) in parentheses (people with T2DM): 93%; HOMA-IR, Post-dose (people with T2DM): 4.74; HOMA-IR, Post-dose, percentage of control (pre-dose) in parentheses (people with T2DM): 89%
Oc1ccc(/C=C/c2cc(O)cc(O)c2)cc1 [trans-Resveratrol] | – | – | – | – | – | – | – | – | – | – | – | – | – | – | – | – | – | – | – | – | Fasting Glucose, Post-dose, percentage of control (pre-dose) in parentheses (people with T2DM): 94%; MDA, Post-dose (people with T2DM): 3.49 µmol/L; MDA, Post-dose, percentage of control (pre-dose) in parentheses (people with T2DM): 91%; hs-CRP, Post-dose (people with T2DM): 3.28 mg/L; hs-CRP, Post-dose, percentage of control (pre-dose) in parentheses (people with T2DM): 89%; Fasting Glucose, Post-dose (people with T2DM): 6.98 mmol/L; Fasting HbA1c, Post-dose (people with T2DM): 7.86%; Fasting HbA1c, Post-dose, percentage of control (pre-dose) in parentheses (people with T2DM): 92%; HOMA-IR, Post-dose (people with T2DM): 4.98; HOMA-IR, Post-dose, percentage of control (pre-dose) in parentheses (people with T2DM): 93%
COc1cc2c(cc1O)CC[C@@H]1[C@@H]2CC[C@]2(C)[C@@H](O)CC[C@@H]12 [2-Methoxyestradiol] | 20 µM | 13% | 10 µM | 27% | 19.7 ± 2.1 | 40 µM | 42% | 20.0 ± 2.0 | 10 µM | 30% | 1.7 ± 1.5 | 20 µM | 44% | 8.0 ± 2.0 | 10 µM | 11% | 10 µM | 11% | 5 µM | 33% | IC50 (Hela cells): 2.5 µM; percentage of control at IC50 dose (Hela cells): 48%; value at effective dose (Hela cells): 4.3 ± 1.5; IC50 (Liver cancer cells): 5 µM; percentage of control at IC50 dose (Liver cancer cells): 45%; IC50 (Pancreas cancer cells): 40 µM; percentage of control at IC50 dose (Pancreas cancer cells): 42%; percentage of control at IC50 dose (Prostate cancer cells): 39%; IC50 (Breast cancer cells): 10 µM; percentage of control at IC50 dose (Breast cancer cells): 45%; percentage of control at IC50 dose (Lung cancer cells): 17%; value at effective dose (Lung cancer cells): 2.3 ± 1.5; percentage of control at IC50 dose (Melanoma cells): 25%; percentage of control at IC50 dose (B-Lymphocyte cells): 5%; value at effective dose (B-Lymphocyte cells): 4.0 ± 2.0; effective dose (T-cells (Jurkat)): 5 µM; percentage of control at IC50 dose (T-cells (Jurkat)): 8%; percentage of control at effective dose (T-cells (Jurkat)): 8%; value at effective dose (T-cells (Jurkat)): 31.3 ± 5.7
C=C[C@H]1C[N@@]2CC[C@H]1C[C@H]2[C@H](O)c1ccnc2ccc(OC)cc12 [Quinine Sulphate] | 20 µM | 19% | 80 µM | 58% | 47.7 ± 2.1 | 40 µM | 78% | 35.0 ± 3.0 | 20 µM | 36% | 15.7 ± 2.1 | 80 µM | 60% | 12.3 ± 2.3 | 40 µM | 66% | 20 µM | 56% | 80 µM | 19% | IC50 (Hela cells): 10 µM; percentage of control at IC50 dose (Hela cells): 24%; IC50 (Liver cancer cells): 80 µM; percentage of control at IC50 dose (Liver cancer cells): 58%; IC50 (Prostate cancer cells): 20 µM; percentage of control at IC50 dose (Prostate cancer cells): 36%; IC50 (Melanoma cells): 80 µM; percentage of control at IC50 dose (Melanoma cells): 50%; IC50 (T-cells (Jurkat)): 80 µM; effective dose (T-cells (Jurkat)): 40 µM; percentage of control at IC50 dose (T-cells (Jurkat)): 50%; percentage of control at effective dose (T-cells (Jurkat)): 77%; value at effective dose (T-cells (Jurkat)): 267.7 ± 29.7
O=C1O[C@H]([C@@H](O)CO)C(O)=C1O [Ascorbic Acid] | 80 µM | 64% | 80 µM | 90% | 74.3 ± 2.5 | 80 µM | 71% | 42.3 ± 2.5 | 80 µM | 81% | 29.3 ± 2.1 | 40 µM | 73% | 15.0 ± 1.7 | 20 µM | 46% | 80 µM | 81% | 20 µM | 62% | value at effective dose (Hela cells): 21.0 ± 0.1; IC50 (Lung cancer cells): 10 µM; percentage of control at IC50 dose (Lung cancer cells): 49%; value at effective dose (Lung cancer cells): 15.0 ± 4.4; value at effective dose (B-Lymphocyte cells): 17.3 ± 2.5; effective dose (T-cells (Jurkat)): 40 µM; percentage of control at effective dose (T-cells (Jurkat)): 89%; value at effective dose (T-cells (Jurkat)): 451.3 ± 32.4
